Data on 6 compounds can be found in patent publication US11807693B2 (priority 2014, dated 2023).

Molecules are shown by their SMILES. Starred links: 1 amine or outer side, 2 acyl side, 3 side chain; linkers in the order of their positions; H or OH if unused. Non-standard residues stand in square brackets, D forms with d. Residues, ends and D or L forms follow the SMILES beside them. *: point of attachment. Oic = O=C(O)[C@@H]1C[C@@H]2CCCC[C@@H]2N1; Phe(4-Cl) = N[C@@H](Cc1ccc(Cl)cc1)C(=O)O; γGlu = O=C(O)[C@H](CCC(=O)[*:2])N[*:1]; NMeR = CN[C@@H](CCCNC(=N)N)C(=O)O; Palmitoyl = CCCCCCCCCCCCCCCC(=O)*; Tridecanoyl = CCCCCCCCCCCCC(=O)*; 3Pal = N[C@@H](Cc1cccnc1)C(=O)O; Cha = N[C@@H](CC1CCCCC1)C(=O)O; αMeL = CC(C)C[C@](C)(N)C(=O)O; αMeOrn = C[C@](N)(CCCN)C(=O)O; β3hP = O=C(O)C[C@@H]1CCCN1; Pip = O=C(O)[C@@H]1CCCCN1; Nle = CCCC[C@H](N)C(=O)O; Orn = NCCC[C@H](N)C(=O)O; AEEA = NCCOCCOCC(=O)O; Aib = CC(C)(N)C(=O)O; NPrGly = CCCNCC(=O)O

The nature of series [1]: In vitro stability in rat plasma. In kind it is in vitro ADME. The essentials: (§1)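 Incubations: 5 μM apelin peptide, 37° C., 4 hr, in rat plasma, liver or kidney homogenate. Read-out via high resolution LC-MS after MeOH/internal standard precipitation and centrifugation.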
A further series addresses T1, human APJ receptor (Homo sapiens, UniProt P35414).
T1 construct: expressed in transfected cells
T1 sequence (P35414 1-380): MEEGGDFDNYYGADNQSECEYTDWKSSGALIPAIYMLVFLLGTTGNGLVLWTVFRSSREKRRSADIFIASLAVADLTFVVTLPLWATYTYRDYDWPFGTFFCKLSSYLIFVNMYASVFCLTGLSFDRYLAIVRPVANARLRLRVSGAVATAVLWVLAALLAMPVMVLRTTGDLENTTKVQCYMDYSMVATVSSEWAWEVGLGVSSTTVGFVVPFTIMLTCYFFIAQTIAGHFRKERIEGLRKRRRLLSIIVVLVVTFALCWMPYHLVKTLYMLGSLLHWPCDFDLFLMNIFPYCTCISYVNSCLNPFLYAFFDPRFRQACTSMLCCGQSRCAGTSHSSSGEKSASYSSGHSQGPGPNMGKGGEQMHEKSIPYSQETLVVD
Nature of the series: [35S] GTPγS assay, human APJ receptor. The format is biochemical. Background: GTPγS resists hydrolysis and so accumulates on activated G proteins.

The nature of series [2]: In vitro stability in rat liver homogenate. The format is in vitro ADME. The following applies: tissue homogenate. The method in brief: as §1

Method for human APJ receptor: The membranes were incubated with modified peptides in the assay buffer. […] Bound [^35S] GTPγS was separated from free radiolabel by filtration. The filter bound radioactivity was determined by liquid scintillation counting.

Usually fraction remaining stands for the share of the starting amount still present when the sample was taken. As usually defined, the EC50 is the concentration needed to bring the measured effect to its halfway point. Low readings indicate higher potency in that assay, high ones lower potency in that assay. Regarding `CCCCCCCCCCCCC(=O)N[C@@H](CCC(=O)NCCOCCOCC(=O)NCCOCCOCC(=O)N[C@@H](CCC(N)=O)C(=O)N[C@@H](CCCNC(=N)N)C(=O)N1CCC[C@H]1C(=O)N(C)[C@@H](CCCNC(=N)N)C(=O)N[C@@H](CC1CCCCC1)C(=O)N[C@@H](CO)C(=O)N[C@@H](Cc1c[nH]cn1)C(=O)N[C@@H](CCCCN)C(=O)NCC(=O)N1CCCC[C@H]1C(=O)N[C@@H](CCCC)C(=O)N1CCC[C@H]1C(=O)N[C@@H](Cc1ccc(Cl)cc1)C(=O)O)C(=O)O` [compound 416] ({Tridecanoyl-γGlu-AEEA-AEEA}-QRP[NMeR][Cha]SHKG[Pip][Nle]P[Phe(4-Cl)]-OH), in series [1], the fraction remaining at 4 h, 5 μM came to 57.7%. Also, the 50% effective concentration (EC50) at human APJ receptor (Table 16) was 0.192 nM.
On to `CCCCCCCCCCCCC(=O)N[C@@H](CCC(=O)NCCOCCOCC(=O)NCCOCCOCC(=O)N[C@@H](CCC(N)=O)C(=O)N[C@@H](CCCNC(=N)N)C(=O)N1CCC[C@H]1C(=O)N(C)[C@@H](CCCCNC(=N)N)C(=O)N[C@@H](CC(C)C)C(=O)N[C@@H](CO)C(=O)N[C@@H](Cc1c[nH]cn1)C(=O)N[C@@H](CCCCN)C(=O)NCC(=O)N1CCC[C@H]1C(=O)N[C@@H](CCCC)C(=O)N1CCC[C@H]1C(=O)N[C@@H](Cc1ccc2ccccc2c1)C(=O)O)C(=O)O` [compound 471], for which the results for the fraction remaining at 4 h, 5 μM in series [1] and in series [2] were 52% and under 1%, respectively. The EC50 on human APJ receptor (Table 16) is 0.0229 nM.
As for `CCCCCCCCCCCCCCCC(=O)N[C@@H](CCC(=O)NCCOCCOCC(=O)NCCOCCOCC(=O)N[C@H](CCC(N)=O)C(=O)N[C@@H](CCCNC(=N)N)C(=O)N1CCC[C@H]1C(=O)N(C)[C@@H](CCCNC(=N)N)C(=O)N[C@@](C)(CC(C)C)C(=O)N[C@@H](CO)C(=O)N[C@@H](Cc1c[nH]cn1)C(=O)N[C@@H](CCCN)C(=O)NCC(=O)N1[C@H](C(=O)N[C@@H](CCCC)C(=O)N2CCC[C@H]2CC(=O)N[C@@H](Cc2ccc(Cl)cc2)C(=O)O)C[C@@H]2CCCC[C@@H]21)C(=O)O` [compound 634] ({Palmitoyl-γGlu-AEEA-AEEA}-[dQ]RP[NMeR][αMeL]SH[Orn]G[Oic][Nle][β3hP][Phe(4-Cl)]-OH), the midpoint of the response at human APJ receptor (human APJ receptor), the EC50, lay at 0.165 nM.
As for `CCCCCCCCCCCCCCCC(=O)N[C@@H](CCC(=O)NCCOCCOCC(=O)NCCOCCOCC(=O)N[C@H](CCC(N)=O)C(=O)N[C@@H](CCCNC(=N)N)C(=O)N1CCC[C@H]1C(=O)N(C)[C@@H](CCCNC(=N)N)C(=O)N[C@@](C)(CC(C)C)C(=O)N[C@@H](CO)C(=O)N[C@@H](Cc1c[nH]cn1)C(=O)N[C@@](C)(CCCN)C(=O)NCC(=O)N1[C@H](C(=O)N[C@@H](CCCC)C(=O)N2CCC[C@H]2CC(=O)N[C@@H](Cc2ccc(Cl)cc2)C(=O)O)C[C@@H]2CCCC[C@@H]21)C(=O)O` [compound 635] ({Palmitoyl-γGlu-AEEA-AEEA}-[dQ]RP[NMeR][αMeL]SH[αMeOrn]G[Oic][Nle][β3hP][Phe(4-Cl)]-OH), it took 1.62 nM to reach a half-maximal effect on human APJ receptor (human APJ receptor) (EC50).
`CCCCCCCCCCCCCCCC(=O)N[C@@H](CCC(=O)NCCOCCOCC(=O)NCCOCCOCC(=O)N[C@H](CCC(N)=O)C(=O)N[C@@H](CCCNC(=N)N)C(=O)N1CCC[C@H]1C(=O)N(C)[C@@H](CCCNC(=N)N)C(=O)N[C@@](C)(CC(C)C)C(=O)N[C@@H](CO)C(=O)N[C@@H](Cc1c[nH]cn1)C(=O)N[C@@H](Cc1cccnc1)C(=O)NCC(=O)N1[C@H](C(=O)N[C@@H](CCCC)C(=O)N2CCC[C@H]2CC(=O)N[C@@H](Cc2ccc(Cl)cc2)C(=O)O)C[C@@H]2CCCC[C@@H]21)C(=O)O` [compound 636] ({Palmitoyl-γGlu-AEEA-AEEA}-[dQ]RP[NMeR][αMeL]SH[3Pal]G[Oic][Nle][β3hP][Phe(4-Cl)]-OH) registered an EC50 on human APJ receptor (human APJ receptor) of 1.59 nM.
`CCCCCCCCCCCCCCCC(=O)N[C@@H](CCC(=O)NCCOCCOCC(=O)NCCOCCOCC(=O)N[C@H](CCC(N)=O)C(=O)N[C@@H](CCCNC(=N)N)C(=O)N1CCC[C@H]1C(=O)N(C)[C@@H](CCCNC(=N)N)C(=O)N[C@@H](CC1CCCCC1)C(=O)N[C@@H](CO)C(=O)N(CCC)CC(=O)N[C@@H](CCCCN)C(=O)NCC(=O)N1CCCC[C@H]1C(=O)N[C@@H](CCCC)C(=O)NC(C)(C)C(=O)N[C@@H](Cc1ccc(Cl)cc1)C(=O)O)C(=O)O` [compound 644] ({Palmitoyl-γGlu-AEEA-AEEA}-[dQ]RP[NMeR][Cha]S[NPrGly]KG[Pip][Nle][Aib][Phe(4-Cl)]-OH) yielded an EC50 on human APJ receptor (human APJ receptor) of 1.4 nM. The EC50 values of the last two compounds are within 1.5-fold of each other.
